According to patent US9663562B2, “Compositions and methods for treating cancer” (Dana-Farber Cancer Institute, Inc., priority 2013, dated 2017):

What was measured:
Assay type in all cases: cell-based, human
[1] = test system: MUC16-positive OVCAR3 ovarian cancer cells; experiment: Viable cell number by trypan blue staining, OVCAR3 cells; conditions: OVCAR3, 5 microM, 5 days, vs control
Procedure: (§1) FIG. 1 illustrates the Effects of MUC16 Inhibitor Peptide (IP-16) on MUC16-positive cancer cells. Human MUC16-positive OVCAR3 ovarian cancer (A), MIAPACA2 pancreatic cancer (B) and ASPC1 pancreatic cancer (C) cells were left untreated (Control) or treated with 5 microM IP-16(RRRRRRRR-CLICGVLVTTRRRKK; SEQ ID NO:5) or CP-16 (RRRRRRRR-ALIAGVLVTTRRRKK; SEQ ID NO:6) for 5 days. Viable cell number was determined by trypan blue staining. The results are expressed as cell number (mean+SD of three determinations).
(§2) Viable cell number was determined by trypan blue staining.

[2] = test system: MUC16-positive ASPC1 pancreatic cancer cells; experiment: Viable cell number by trypan blue staining, ASPC1 cells; conditions: ASPC1, 5 microM, 5 days, vs control
Procedure: as §1, §2

[3] = test system: MUC16-negative HEK293T cells; experiment: Growth of MUC16-negative control cells
[4] = test system: MUC16-positive MIAPACA2 pancreatic cancer cells; experiment: Viable cell number by trypan blue staining, MIAPACA2 cells; conditions: MIAPACA2, 5 microM, 5 days, vs control
Procedure: as §1, §2

RRRRRRRR-CLICGVLVTTRRRKK (RRRRRRRRCLICGVLVTTRRRKK) [IP-16]
cell number (viable cells) [1]: significantly reduced
cell number (viable cells) [2]: significantly reduced
effect on growth [3]: little, if any, effect
cell number (viable cells) [4]: significantly reduced
